Assay results reported in US20200247800A1, “SUBSTITUTED BICYCLIC HETEROCYCLIC COMPOUNDS AS NADPH OXIDASE INHIBITORS” (Glenmark Pharmaceuticals S.A., priority 2017, published 2020).

Target: T1, human NOX4 (Homo sapiens, UniProt Q9NPH5)
T1 construct: expressed in transfected cells; membrane fraction used
T1 sequence (Q9NPH5 1-578): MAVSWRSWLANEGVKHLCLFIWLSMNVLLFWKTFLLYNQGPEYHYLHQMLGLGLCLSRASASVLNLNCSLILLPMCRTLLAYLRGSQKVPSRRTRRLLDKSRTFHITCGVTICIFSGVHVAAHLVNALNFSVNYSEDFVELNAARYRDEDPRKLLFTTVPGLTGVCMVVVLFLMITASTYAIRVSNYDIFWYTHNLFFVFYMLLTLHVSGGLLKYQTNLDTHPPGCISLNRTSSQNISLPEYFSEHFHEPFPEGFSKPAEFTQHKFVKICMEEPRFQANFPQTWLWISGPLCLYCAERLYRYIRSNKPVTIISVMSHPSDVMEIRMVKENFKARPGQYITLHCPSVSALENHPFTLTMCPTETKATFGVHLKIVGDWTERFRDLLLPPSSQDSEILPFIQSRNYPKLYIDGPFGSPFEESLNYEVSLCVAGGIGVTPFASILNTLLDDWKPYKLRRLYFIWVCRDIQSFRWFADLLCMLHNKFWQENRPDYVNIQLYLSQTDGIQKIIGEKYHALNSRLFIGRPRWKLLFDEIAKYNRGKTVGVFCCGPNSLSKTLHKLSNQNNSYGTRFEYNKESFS
T1 sequence (P13498 1-195 partner): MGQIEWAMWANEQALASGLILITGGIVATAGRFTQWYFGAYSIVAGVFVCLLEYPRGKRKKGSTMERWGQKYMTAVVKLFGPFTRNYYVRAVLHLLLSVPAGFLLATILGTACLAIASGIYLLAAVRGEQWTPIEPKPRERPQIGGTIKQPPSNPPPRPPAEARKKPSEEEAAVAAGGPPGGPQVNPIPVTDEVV
Experiment: Cell free membrane based in vitro NOX4 assay: H2O2 production by membranes expressing human NOX4, measured with Amplex Red
Assay type: biochemical
Conditions: for inhibition at 1 µM: 1.0 μM compound, read-out: Percentage inhibition at 1.0 μM; for inhibition at 10 µM: 10.0 μM compound, read-out: Percentage inhibition at 10.0 μM; for IC50: class symbols
Outline: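 IC50 came from concentration-response curves fitted as % of the inhibitor-free maximum. H2O2 formation was monitored for 10 min via Amplex Red/HRP fluorescence (544/590 nm) after NADPH start. Membranes from a stable hNOX4/HEK line had 20 min exposure to inhibitor beforehand at pH 7.4.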

inhibition at 1 µM | inhibition at 10 µM | IC50 | Compound
100% | 100% | 50 to 100 nM | Cc1cc2c(=O)c(O)c(-c3ccc(F)c(C(F)(F)F)c3)[nH]c2s1 [Example 61, 6-[4-Fluoro-3-(trifluoromethyl)phenyl]-5-hydroxy-2-methylthieno[2,3-b]pyridin-4(7H)-one]
39% | 98% | > 150 nM | Cc1nc2c(=O)c(O)c(-c3ccccc3Cl)[nH]c2s1 [Example 62, 5-(2-Chlorophenyl)-6-hydroxy-2-methyl[1,3]thiazolo[5,4-b]pyridin-7(4H)-one]
58.6% | 100% | > 150 nM | O=c1c(O)c(-c2ccccc2Cl)[nH]c2sc(C(F)(F)F)nc12 [Example 63, 5-(2-Chlorophenyl)-6-hydroxy-2-trifluoromethyl[1,3]thiazolo[5,4-b]pyridin-7(4H)-one]
68.8% | 100% | > 150 nM | Cc1noc2[nH]c(-c3ccccc3Cl)c(O)c(=O)c12 [Example 64, 6-(2-Chlorophenyl)-5-hydroxy-3-methyl[1,2]oxazolo[5,4-b]pyridin-4(7H)-one]
74.7% | 63.1% | > 150 nM | COCCOc1ccc(-c2[nH]c3c(c(C)nn3C)c(=O)c2O)c(Cl)c1 [Example 65, 6-(2-Chloro-4-(2-methoxyethoxy)phenyl)-5-hydroxy-1,3-dimethyl-1H-pyrazolo[3,4-b]pyridin-4(7H)-one]
100% | 100% | > 150 nM | COCCOc1ccc(-c2[nH]c3c(c(C(F)(F)F)nn3C)c(=O)c2O)c(F)c1 [Example 66, 6-(2-Fluoro-4-(2-methoxyethoxy)phenyl)-5-hydroxy-1-methyl-3-(trifluoromethyl)-1H-pyrazolo[3,4-b]pyridin-4(7H)-one]
87.1% | 85.7% | 50 to 100 nM | COc1cc(F)c(-c2[nH]c3c(c(C)nn3C)c(=O)c2O)c(F)c1 [Example 67, 6-(2,6-Difluoro-4-methoxyphenyl)-5-hydroxy-1,3-dimethyl-1H-pyrazolo[3,4-b]pyridin-4(7H)-one]
84.3% | 80.3% | 50 to 100 nM | CCn1nc(C)c2c(=O)c(O)c(-c3c(F)cccc3F)[nH]c21 [Example 68, 6-(2,6-Difluorophenyl)-1-ethyl-5-hydroxy-3-methyl-1H-pyrazolo[3,4-b]pyridin-4(7H)-one]
67.2% | – | > 150 nM | CCn1nc(C)c2c(=O)c(O)c(-c3ccc(OC)cc3F)[nH]c21 [Example 69, 1-Ethyl-6-(2-fluoro-4-methoxyphenyl)-5-hydroxy-3-methyl-1H-pyrazolo[3,4-b]pyridin-4(7H)-one]
97.5% | 98.4% | > 150 nM | COc1ccc(-c2[nH]c3c(c(C)nn3CC(F)(F)F)c(=O)c2O)c(F)c1 [Example 70, 6-(2-Fluoro-4-methoxyphenyl)-5-hydroxy-3-methyl-1-(2,2,2-trifluoroethyl)-1H-pyrazolo[3,4-b]pyridin-4(7H)-one]
81.5% | 79.3% | < 50 nM | CCc1nn(C)c2[nH]c(-c3c(F)cccc3F)c(O)c(=O)c12 [Example 71, 6-(2,6-Difluorophenyl)-3-ethyl-5-hydroxy-1-methyl-1H-pyrazolo[3,4-b]pyridin-4(7H)-one]
82.2% | – | 100 to 150 nM | CCc1nn(C)c2[nH]c(-c3ccc(OC)cc3F)c(O)c(=O)c12 [Example 72, 3-Ethyl-6-(2-fluoro-4-methoxyphenyl)-5-hydroxy-1-methyl-1H-pyrazolo[3,4-b]pyridin-4(7H)-one]
79.8% | 73.1% | 50 to 100 nM | CCc1nn(C)c2[nH]c(-c3ccc(OC)cc3Cl)c(O)c(=O)c12 [Example 73, 6-(2-Chloro-4-methoxyphenyl)-3-ethyl-5-hydroxy-1-methyl-1H-pyrazolo[3,4-b]pyridin-4(7H)-one]
91.1% | 90.3% | 50 to 100 nM | Cc1nn(C(C)C)c2[nH]c(-c3c(F)cccc3F)c(O)c(=O)c12 [Example 74, 6-(2,6-Difluorophenyl)-5-hydroxy-1-isopropyl-3-methyl-1H-pyrazolo[3,4-b]pyridin-4(7H)-one]
1.59% | 12.5% | – | CC(C)c1c2c(=O)c(O)c(-c3ccccc3Cl)[nH]c2nn1C [Example 75, 6-(2-Chlorophenyl)-5-hydroxy-3-isopropyl-2-methyl-2H-pyrazolo[3,4-b]pyridin-4(7H)-one]
95% | 93.5% | < 50 nM | Cc1nn(Cc2ccccc2)c2[nH]c(-c3c(F)cccc3F)c(O)c(=O)c12 [Example 76, 1-Benzyl-6-(2,6-difluorophenyl)-5-hydroxy-3-methyl-1H-pyrazolo[3,4-b]pyridin-4(7H)-one]
88.9% | 72.1% | 100 to 150 nM | COc1ccc(-c2[nH]c3c(c(C)nn3Cc3ccccc3)c(=O)c2O)c(F)c1 [Example 77, 1-Benzyl-6-(2-fluoro-4-methoxyphenyl)-5-hydroxy-3-methyl-1H-pyrazolo[3,4-b]pyridin-4(7H)-one]
55.3% | 89.3% | > 150 nM | NC(=O)c1nsc2c(=O)c(O)c(-c3ccccc3Cl)[nH]c12 [Example 78, 5-(2-Chlorophenyl)-6-hydroxy-7-oxo-4,7-dihydroisothiazolo[4,5-b]pyridine-3-carboxamide]
78.4% | 81.6% | 100 to 150 nM | CCCn1nc(C)c2c(=O)c(O)c(-c3c(F)cccc3F)[nH]c21 [Example 79, 6-(2,6-Difluorophenyl)-5-hydroxy-3-methyl-1-propyl-1H-pyrazolo[3,4-b]pyridin-4(7H)-one]
94% | 97.5% | 50 to 100 nM | Cc1nn(CCN(C)C)c2[nH]c(-c3ccccc3Cl)c(O)c(=O)c12 [Example 80, 6-(2-Chlorophenyl)-1-(2-(dimethylamino)ethyl)-5-hydroxy-3-methyl-1H-pyrazolo[3,4-b]pyridin-4(7H)-one]
93.3% | 81.5% | > 150 nM | CCn1nc(C)c2c(=O)c(O)c(-c3cc(F)ccc3F)[nH]c21 [Example 81, 6-(2,5-Difluorophenyl)-1-ethyl-5-hydroxy-3-methyl-1H-pyrazolo[3,4-b]pyridin-4(7H)-one]
87.5% | – | 50 to 100 nM | CCCn1nc(C)c2c(=O)c(O)c(-c3ccc(OC)cc3F)[nH]c21 [Example 82, 6-(2-Fluoro-4-methoxyphenyl)-5-hydroxy-3-methyl-1-propyl-1H-pyrazolo[3,4-b]pyridin-4(7H)-one]
74.4% | 99% | > 150 nM | Cc1nn(C)c2c(=O)c(O)c(-c3ccccc3Cl)[nH]c12 [Example 83, 5-(2-Chlorophenyl)-6-hydroxy-1,3-dimethyl-1H-pyrazolo[4,3-b]pyridin-7(4H)-one]
80.2% | 88.6% | > 150 nM | Cc1nn(Cc2ccc(F)cc2)c2[nH]c(-c3c(F)cccc3F)c(O)c(=O)c12 [Example 84, 6-(2,6-Difluorophenyl)-1-(4-fluorobenzyl)-5-hydroxy-3-methyl-1H-pyrazolo[3,4-b]pyridin-4(7H)-one]
72.5% | 88% | > 150 nM | Cn1nc(C(F)F)c2c(=O)c(O)c(-c3ccccc3Cl)[nH]c21 [Example 85, 6-(2-Chlorophenyl)-3-(difluoromethyl)-5-hydroxy-1-methyl-1H-pyrazolo[3,4-b]pyridin-4(7H)-one]
74.5% | 89.8% | > 150 nM | Cn1nc(C(F)F)c2c(=O)c(O)c(-c3c(F)cccc3F)[nH]c21 [Example 86, 3-(Difluoromethyl)-6-(2,6-difluorophenyl)-5-hydroxy-1-methyl-1H-pyrazolo[3,4-b]pyridin-4(7H)-one]
78.2% | 88.5% | 100 to 150 nM | Cc1nn(C2CC2)c2[nH]c(-c3c(F)cccc3F)c(O)c(=O)c12 [Example 87, 1-Cyclopropyl-6-(2,6-difluorophenyl)-5-hydroxy-3-methyl-1H-pyrazolo[3,4-b]pyridin-4(7H)-one]
100% | 100% | 50 to 100 nM | Cc1nn(CCN2CCOCC2)c2[nH]c(-c3c(F)cccc3F)c(O)c(=O)c12 [Example 88, 6-(2,6-Difluorophenyl)-5-hydroxy-3-methyl-1-(2-morpholinoethyl)-1H-pyrazolo[3,4-b]pyridin-4(7H)-one]
